According to patent US20240174723A1, “STAPLED ANTIMICROBIAL PEPTIDES (STAMPS) AND USES THEREOF” (Lytica Therapeutics, Inc., priority 2021, published 2024):
Converted amounts (≈) assume the structure as drawn. Positions of bridges follow the written chain, without caps; N, C: chain ends. Non-standard residues stand in square brackets, D forms with d. Residues, ends and D or L forms follow the SMILES beside them. S5 = C=CCCC[C@](C)(N)C(=O)O; Dab = NCC[C@H](N)C(=O)O; Dap = NC[C@H](N)C(=O)O

What was measured:
S. aureus = format: cell-based, Staphylococcus aureus
Procedure, shortened: (§1)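 Broth microdilution adapted from CLSI in Mueller-Hinton broth or cation-adjusted MHB. Overnight 37 °C cultures were regrown 3-4 h, then added to serially diluted peptide at a final 5×10^5 CFU/ml. After 20-24 h at 37 °C, MIC was the lowest peptide concentration with no visible growth.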

in vitro = format: cell-based; conditions: human, Inhibitory Concentration at 50% Cytotoxicity (IC50) Human Liver Cells (HepG2)
Procedure, shortened: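 HepG2 cells in EMEM with 10% FBS, allowed 4 h to attach, then exposed to serial dilutions of StAMPs (from a 5 mg/mL water stock) or vehicle. After 48 h at 37 °C, viability read by CellTiter-Glo luminescence.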

A. baumannii = format: cell-based, Acinetobacter baumannii
Procedure, shortened: as §1

P. aeruginosa = format: cell-based, Pseudomonas aeruginosa
Procedure, shortened: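 Broth microdilution adapted from CLSI in MHB or cation-adjusted MHB; log-phase P. aeruginosa at 5×10^5 CFU/ml final with serially diluted stapled peptides. Incubated 20-24 h at 37 °C; MIC is the lowest concentration without visible growth.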

E. coli = format: cell-based, Escherichia coli
Procedure, shortened: as §1

K. pneumoniae = format: cell-based, Klebsiella pneumoniae
Procedure, shortened: as §1

Minimum Inhibitory Concentration (MIC) S. aureus (S. aureus)	Minimum Inhibitory Concentration (MIC) A. baumannii (A. baumannii)	Minimum Inhibitory Concentration (MIC) P. aeruginosa (P. aeruginosa)	Minimum Inhibitory Concentration (MIC) E. coli (E. coli)	Minimum Inhibitory Concentration (MIC) K. pneumoniae (K. pneumoniae)	SMILES	IC50 at 48 hours (in vitro)
>64 µg/mL	4 µg/mL	16 µg/mL	16 µg/mL	>64 µg/mL	CC(C)[C@@H]1NC(=O)[C@@](C)(NC(=O)[C@H](CO)NC(=O)[C@H](CCCCN)NC(=O)CNC(=O)[C@H](Cc2ccccc2)NC(=O)[C@H](CCCCN)NC(=O)[C@H](CCCCN)NC(=O)[C@H](CCCCN)NC(=O)[C@H](CCCCN)NC(=O)[C@H](CCCCN)NC(=O)[C@]2(C)CCCC=CCCC[C@](C)(NC(=O)CN)C(=O)NCC(=O)N[C@@H](CCCCN)C(=O)N[C@@H](Cc3ccccc3)C(=O)N2)CCCC=CCCC[C@@](C)(C(=O)N[C@@H](C)C(=O)N[C@@H](CCCCN)C(=O)N[C@@H](CCCCN)C(=O)NCC(=O)NCC(=O)N[C@@H](CCC(=O)O)C(N)=O)NC(=O)[C@H](CCC(=O)O)NC(=O)CNC1=O [compound 92] (H-G[S5]GKF[S5]KKKKKFGKS[S5]VGE[S5]AKKGGE-NH2; staple 2-6, 16-20)	> 200 µg/mL
>64 µg/mL	1 µg/mL	1 µg/mL	1 µg/mL	32 µg/mL	CC(C)[C@@H]1NC(=O)[C@@](C)(NC(=O)[C@H](C)NC(=O)[C@H](CCCCN)NC(=O)CNC(=O)[C@H](Cc2ccccc2)NC(=O)[C@H](CCCCN)NC(=O)[C@H](CCCCN)NC(=O)[C@H](CCCCN)NC(=O)[C@H](CCCCN)NC(=O)[C@H](CN)NC(=O)[C@]2(C)CCCC=CCCC[C@](C)(NC(=O)CN)C(=O)NCC(=O)N[C@@H](CCCCN)C(=O)N[C@@H](Cc3ccccc3)C(=O)N2)CCCC=CCCC[C@@](C)(C(=O)N[C@@H](C)C(=O)N[C@@H](CCCCN)C(=O)N[C@@H](CCCCN)C(N)=O)NC(=O)[C@H](CCC(=O)O)NC(=O)[C@H](CO)NC1=O [compound 88] (H-G[S5]GKF[S5][Dap]KKKKFGKA[S5]VSE[S5]AKK-NH2; staple 2-6, 16-20)	168 µg/mL (≈ 65.8 µM)
64 µg/mL	1 µg/mL	2 µg/mL	4 µg/mL	64 µg/mL	CC(C)[C@@H]1NC(=O)[C@@](C)(NC(=O)[C@H](CO)NC(=O)[C@H](CCCCN)NC(=O)CNC(=O)[C@H](Cc2ccccc2)NC(=O)[C@H](CCCCN)NC(=O)[C@H](CCCCN)NC(=O)[C@H](CCCCN)NC(=O)[C@H](CCCCN)NC(=O)[C@H](CN)NC(=O)[C@]2(C)CCCC=CCCC[C@](C)(NC(=O)CN)C(=O)NCC(=O)N[C@@H](CCCCN)C(=O)N[C@@H](Cc3ccccc3)C(=O)N2)CCCC=CCCC[C@@](C)(C(=O)N[C@@H](C)C(=O)N[C@@H](CCCCN)C(=O)N[C@@H](CCCCN)C(N)=O)NC(=O)[C@H](CCC(=O)O)NC(=O)CNC1=O [compound 87] (H-G[S5]GKF[S5][Dap]KKKKFGKS[S5]VGE[S5]AKK-NH2; staple 2-6, 16-20)	> 200 µg/mL

Second part, the compound before the results:

SMILES	Minimum Inhibitory Concentration (MIC) S. aureus (S. aureus)	Minimum Inhibitory Concentration (MIC) A. baumannii (A. baumannii)	Minimum Inhibitory Concentration (MIC) P. aeruginosa (P. aeruginosa)	Minimum Inhibitory Concentration (MIC) E. coli (E. coli)	Minimum Inhibitory Concentration (MIC) K. pneumoniae (K. pneumoniae)	IC50 at 48 hours (in vitro)
CC(C)[C@@H]1NC(=O)[C@@](C)(NC(=O)[C@H](C)NC(=O)[C@H](CCCCN)NC(=O)CNC(=O)[C@H](Cc2ccccc2)NC(=O)[C@H](CCCCN)NC(=O)[C@H](CCCCN)NC(=O)[C@H](CCCCN)NC(=O)[C@H](CCCCN)NC(=O)[C@H](CCCCN)NC(=O)[C@]2(C)CCCC=CCCC[C@](C)(NC(=O)CN)C(=O)NCC(=O)N[C@@H](CCCCN)C(=O)N[C@@H](Cc3ccccc3)C(=O)N2)CCCC=CCCC[C@@](C)(C(=O)N[C@@H](C)C(=O)N[C@@H](CCCCN)C(=O)N[C@@H](CCCCN)C(=O)NCC(=O)NCC(=O)N[C@@H](CCC(=O)O)C(=O)N[C@@H](CCC(=O)O)C(N)=O)NC(=O)[C@H](CCC(=O)O)NC(=O)CNC1=O [compound 55] (H-G[S5]GKF[S5]KKKKKFGKA[S5]VGE[S5]AKKGGEE-NH2; staple 2-6, 16-20)	>64 µg/mL	8 µg/mL	16 µg/mL	16 µg/mL	64 µg/mL	207 µg/mL (≈ 70.5 µM)
CC(C)[C@@H]1NC(=O)[C@@](C)(NC(=O)[C@H](C)NC(=O)[C@H](CCCCN)NC(=O)CNC(=O)[C@H](Cc2ccccc2)NC(=O)[C@H](CCCCN)NC(=O)[C@H](CCCCN)NC(=O)[C@H](CCN)NC(=O)[C@H](CCCCN)NC(=O)[C@H](CCCCN)NC(=O)[C@]2(C)CCCC=CCCC[C@](C)(NC(=O)CN)C(=O)NCC(=O)N[C@@H](CCCCN)C(=O)N[C@@H](Cc3ccccc3)C(=O)N2)CCCC=CCCC[C@@](C)(C(=O)N[C@@H](C)C(=O)N[C@@H](CCCCN)C(=O)N[C@@H](CCCCN)C(N)=O)NC(=O)[C@H](CCC(=O)O)NC(=O)CNC1=O [compound 42] (H-G[S5]GKF[S5]KK[Dab]KKFGKA[S5]VGE[S5]AKK-NH2; staple 2-6, 16-20)	32 µg/mL	2 µg/mL	8 µg/mL	4 µg/mL	16 µg/mL	194 µg/mL (≈ 76.5 µM)
CC(C)[C@@H]1NC(=O)[C@@](C)(NC(=O)[C@H](C)NC(=O)[C@H](CCCCN)NC(=O)CNC(=O)[C@H](Cc2ccccc2)NC(=O)[C@H](CCCCN)NC(=O)[C@H](CCCCN)NC(=O)[C@H](CCCCN)NC(=O)[C@H](CCCCN)NC(=O)[C@H](CCCCN)NC(=O)[C@]2(C)CCCC=CCCC[C@](C)(NC(=O)CN)C(=O)NCC(=O)N[C@@H](CCCCN)C(=O)N[C@@H](Cc3ccccc3)C(=O)N2)CCCC=CCCC[C@@](C)(C(=O)N[C@@H](C)C(=O)N[C@@H](CCCCN)C(=O)N[C@@H](CCCCN)C(=O)NCC(=O)N[C@@H](CCC(=O)O)C(N)=O)NC(=O)[C@H](CCC(=O)O)NC(=O)CNC1=O [compound 53] (H-G[S5]GKF[S5]KKKKKFGKA[S5]VGE[S5]AKKGE-NH2; staple 2-6, 16-20)	>64 µg/mL	4 µg/mL	16 µg/mL	8 µg/mL	32 µg/mL	211 µg/mL (≈ 76.7 µM)
CC(C)[C@@H]1NC(=O)[C@@](C)(NC(=O)[C@H](C)NC(=O)[C@H](CCCCN)NC(=O)CNC(=O)[C@H](Cc2ccccc2)NC(=O)[C@H](CCCCN)NC(=O)[C@H](CCCCN)NC(=O)[C@H](CCCCN)NC(=O)[C@H](CCCCN)NC(=O)[C@H](CCCCN)NC(=O)[C@]2(C)CCCC=CCCC[C@](C)(NC(=O)CN)C(=O)NCC(=O)N[C@@H](CCCCN)C(=O)N[C@@H](Cc3ccccc3)C(=O)N2)CCCC=CCCC[C@@](C)(C(=O)N[C@@H](C)C(=O)N[C@@H](CCCCN)C(=O)N[C@@H](CCCCN)C(=O)NCC(=O)NCC(=O)NCC(=O)N[C@@H](CCC(=O)O)C(N)=O)NC(=O)[C@H](CCC(=O)O)NC(=O)CNC1=O [compound 54] (H-G[S5]GKF[S5]KKKKKFGKA[S5]VGE[S5]AKKGGGE-NH2; staple 2-6, 16-20)	>64 µg/mL	4 µg/mL	8 µg/mL	8 µg/mL	32 µg/mL	262 µg/mL (≈ 91.5 µM)
CC(C)[C@@H]1NC(=O)[C@H](C(C)C)NC(=O)[C@@](C)(NC(=O)[C@H](C)NC(=O)[C@H](CCCCN)NC(=O)CNC(=O)[C@@H](Cc2ccccc2)NC(=O)[C@H](CCCCN)NC(=O)[C@H](CCCCN)NC(=O)[C@H](CCCCN)NC(=O)[C@H](CCCCN)NC(=O)[C@H](Cc2c[nH]cn2)NC(=O)[C@]2(C)CCCC=CCCC[C@](C)(NC(=O)CN)C(=O)NCC(=O)N[C@@H](CCCCN)C(=O)N[C@H](Cc3ccccc3)C(=O)N2)CCCC=CCCC[C@@](C)(C(=O)N[C@@H](C)C(=O)N[C@@H](CCCCN)C(=O)N[C@@H](CCCCN)C(N)=O)NC(=O)[C@H](CCC(=O)O)NC1=O [compound 28] (H-G[S5]GK[dF][S5]HKKKK[dF]GKA[S5]VVE[S5]AKK-NH2; staple 2-6, 16-20)	>64 µg/mL	16 µg/mL	64 µg/mL	64 µg/mL	>64 µg/mL	201 µg/mL (≈ 76.9 µM)
